In patent US20250031697A1, “METHODS AND COMPOSITIONS TO PREVENT PLANT PESTS AND PATHOGENS” (Impello Biosciences, Inc., priority 2021, published 2025):
Where “and” joins values, the source holds several entries; their conditions need not be identical. Equal entries are not always repeated.

Key:
Assay type in all cases: in vivo
[1] = test system: Botrytis cinerea; experiment: Hemp inoculated with Botrytis cinerea, visual disease score 0-5 at harvest; conditions: 8 replicates
Protocol: Culturing Botrytis cinerea: A Botrytis cinerea isolate was cultured onto potato-dextrose agar (PDA). It was resisolated by taking a mycelial plug from the edge of actively growing cultures every 2-3 weeks to maintain active growing culture. It was maintained at 20° C. under continuous light (˜58 pEin m^−2 s^−1).
Inoculating hemp: The inoculum was prepared by flooding a full grown B. cinerea PDA plate with DI water and 0.1% Tween-20 to create a suspension of fungal spores. Spore count was quantified.
In the first inoculation, a suspension of 1.2×10^4 spores of B. cinerea/mL was created, and 1.5 mL was applied to the top cola/inflorescence of each plant. Hemp was inoculated in the first week of flowering, with application to the underdeveloped inflorescences.
In the second inoculation, a suspension of 1.5×10^5 spores of B. cinerea/mL was created, and sucrose was added to 1% concentration, and the plants were sprayed until drip using a backpack sprayer.
Inoculated plants were placed in a growth chamber or controlled growth environment with a constant temperature of 20-25° C. and 50-70% relative humidity.
Treatment Conditions: Treatments comprising 1 mM or 5 mM jasmonate (MDJ) were applied alone or alongside a biological (Continuum™). These treatment conditions were compared to control (no MDJ, no biological). Each treatment group had 8 replicates. […]

[2] = test system: bunch rot (Botrytis cinerea); experiment: Vineyard trial, MDJ on cabernet sauvignon grapes, laccase analysed as measure of Botrytis prevalence; conditions: MDJ approx. 5 mM, 50 gallons per acre, four applications, control = grower standard
Protocol: Methyl dihydrojasmonate (MDJ) was applied to fields of grape to investigate the efficacy of MDJ in preventing bunch rot on (Botrytis cinerea) and powdery mildew (Erysiphe necator) on grapes. A composition comprising 22.6% w/v MDJ, 49.8% v/v TWEEN-20, and water was diluted at a rate of 32 oz. (1 liter) per 50 gallons of water (approximately a 5 mM solution of MDJ). The composition was then applied (at a rate of 50 gallons per acre) to three acres (1245 vines/acre) of a cabernet sauvignon variety grown in Napa Valley, CA. There was a total of four applications between June and September using a ground spray rig. To investigate the prevalence of Botrytis, the enzyme laccase was analyzed. Laccase can negatively impact wine by causing premature browning of bottled white wine and color degradation in red wine. The MDJ treated group had 2 units/ml, whereas the control (grower standard) had 5 units/ml. This level in the control means that Botrytis problems can be expected during the wine making process, whereas in the MDJ treated group, the value of 2 units/ml means there will be no issues with Botrytis during the wine making process.

[3] = test system: Botrytis; experiment: Field trial, MDJ foliar spray on 'Maverick' strawberries, Botrytis incidence on berries; conditions: MDJ approx. 5 mM, 50 gallons per acre, two foliar sprays
Protocol: Methyl dihydrojasmonate (MDJ) was applied to fields of strawberry to investigate the efficacy of MDJ in preventing Botriytis disease. A composition comprising 22.6% w/v MDJ, 49.8% v/v TWEEN-20, and water was diluted at a rate of 32 oz. (1 liter) per 50 gallons of water (approximately a 5 mM solution of MDJ). The composition was then applied (at a rate of 50 gallons per acre) to an acre of ‘Maverick’ strawberries grown in Watsonville, CA on Aug. 18, 2021 and again on Sep. 2, 2021 using an electrostatic backpack sprayer (foliar spray). Plants were harvested in October 2021. MDJ plants were compared to strawberries treated with the grower standard; a rotation of Pristine® (pyraclostrobin and boscalid), Merivon® (pyraclostrobin), Luna® (fluopyram and trifloxystrobin), and Elevate® (fenhexamid). […] Out of four replicates of 10 plants each, the average incidence of Botrytis on berries in the MDJ treated acre was 11%, compared to 18.75% in the grower standard population.

[4] = test system: powdery mildew (Erysiphe necator); experiment: Vineyard trial, MDJ on cabernet sauvignon grapes, powdery mildew on leaf and fruit samples under the microscope; conditions: MDJ approx. 5 mM, 50 gallons per acre, four applications; grape leaf and fruit samples
Protocol: Methyl dihydrojasmonate (MDJ) was applied to fields of grape to investigate the efficacy of MDJ in preventing bunch rot on (Botrytis cinerea) and powdery mildew (Erysiphe necator) on grapes. A composition comprising 22.6% w/v MDJ, 49.8% v/v TWEEN-20, and water was diluted at a rate of 32 oz. (1 liter) per 50 gallons of water (approximately a 5 mM solution of MDJ). The composition was then applied (at a rate of 50 gallons per acre) to three acres (1245 vines/acre) of a cabernet sauvignon variety grown in Napa Valley, CA. There was a total of four applications between June and September using a ground spray rig. Several leaf and fruit samples were collected to access the presence of powdery mildew under the microscope and compared to leaf and fruit of plants treated with the grower standard.

## CCCCCC1C(=O)CCC1CC(=O)OC (stereo not drawn) [MDJ, methyl dihydrojasmonate]
[1]; condition B: 1 mM MDJ foliar spray
  Average Disease Score: 2.625
[1]; condition C: 5 mM MDJ foliar spray
  Average Disease Score: 2.250
[2]
  Laccase: 2 units/ml
[3]; average of four replicates of 10 plants each
  Average % incidence of Botrytis on berries: 11%
[3]; single replicates 1-4, 10 plants each, strawberry berries
  % incidence of Botrytis: 10% and 16% and 7% and 11%
[4]
  Control of powdery mildew compared to grower standard: the same, or better, control of powdery mildew as the grower standard
